Assays:
[1] = target: T1, Prostaglandin G/H synthase 1 (Rattus norvegicus, UniProt Q63921); format: functional
T1 sequence (Q63921 whole entry): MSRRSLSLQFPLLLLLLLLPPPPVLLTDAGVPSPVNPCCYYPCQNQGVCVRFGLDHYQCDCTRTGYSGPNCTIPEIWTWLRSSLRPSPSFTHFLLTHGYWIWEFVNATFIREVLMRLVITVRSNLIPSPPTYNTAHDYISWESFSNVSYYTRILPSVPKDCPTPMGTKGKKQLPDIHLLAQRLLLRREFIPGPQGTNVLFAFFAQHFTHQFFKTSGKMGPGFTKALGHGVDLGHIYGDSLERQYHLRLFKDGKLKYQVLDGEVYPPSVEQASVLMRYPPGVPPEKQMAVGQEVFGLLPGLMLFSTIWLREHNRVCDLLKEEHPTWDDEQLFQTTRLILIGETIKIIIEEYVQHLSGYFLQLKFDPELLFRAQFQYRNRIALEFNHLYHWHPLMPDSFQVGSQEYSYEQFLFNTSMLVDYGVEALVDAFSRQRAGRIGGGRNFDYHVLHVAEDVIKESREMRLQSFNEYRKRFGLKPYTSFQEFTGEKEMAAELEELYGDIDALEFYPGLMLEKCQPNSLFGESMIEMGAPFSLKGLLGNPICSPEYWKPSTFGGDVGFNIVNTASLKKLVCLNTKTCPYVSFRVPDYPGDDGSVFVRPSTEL

[2] = target: T2, Alpha-2A adrenergic receptor (Homo sapiens, UniProt P08913); format: functional, cell-based
T2 sequence (P08913 whole entry): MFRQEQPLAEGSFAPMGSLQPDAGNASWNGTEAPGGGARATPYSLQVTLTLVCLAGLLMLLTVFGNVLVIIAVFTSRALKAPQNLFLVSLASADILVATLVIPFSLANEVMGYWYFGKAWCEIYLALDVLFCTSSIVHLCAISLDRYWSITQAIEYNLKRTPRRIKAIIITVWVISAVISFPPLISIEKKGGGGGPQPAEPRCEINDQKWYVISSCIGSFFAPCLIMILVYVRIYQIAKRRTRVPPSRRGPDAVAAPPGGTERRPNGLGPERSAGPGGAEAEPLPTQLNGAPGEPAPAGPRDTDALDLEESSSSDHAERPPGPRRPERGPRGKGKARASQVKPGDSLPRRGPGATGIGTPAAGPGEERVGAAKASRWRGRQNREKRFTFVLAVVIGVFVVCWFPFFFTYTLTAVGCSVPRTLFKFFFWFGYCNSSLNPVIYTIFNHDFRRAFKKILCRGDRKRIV

[3] = target: T3, 5-hydroxytryptamine receptor 1A (Homo sapiens, UniProt P08908); format: functional, cell-based
T3 sequence (P08908 whole entry): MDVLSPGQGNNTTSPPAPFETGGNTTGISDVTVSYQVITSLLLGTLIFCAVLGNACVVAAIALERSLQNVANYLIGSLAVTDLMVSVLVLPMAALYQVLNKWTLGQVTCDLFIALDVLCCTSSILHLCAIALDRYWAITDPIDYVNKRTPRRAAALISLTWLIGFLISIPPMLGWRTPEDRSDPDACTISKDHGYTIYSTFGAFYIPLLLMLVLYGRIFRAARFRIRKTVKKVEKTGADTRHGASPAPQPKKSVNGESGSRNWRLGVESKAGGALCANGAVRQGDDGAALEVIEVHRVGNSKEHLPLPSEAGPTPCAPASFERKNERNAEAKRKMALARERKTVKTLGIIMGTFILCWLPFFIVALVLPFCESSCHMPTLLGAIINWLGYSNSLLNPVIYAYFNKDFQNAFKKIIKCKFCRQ

[4] = target: Beta-1 adrenergic receptor (Homo sapiens, UniProt P08588); format: functional
Beta-1 adrenergic receptor, sequence (P08588 whole entry): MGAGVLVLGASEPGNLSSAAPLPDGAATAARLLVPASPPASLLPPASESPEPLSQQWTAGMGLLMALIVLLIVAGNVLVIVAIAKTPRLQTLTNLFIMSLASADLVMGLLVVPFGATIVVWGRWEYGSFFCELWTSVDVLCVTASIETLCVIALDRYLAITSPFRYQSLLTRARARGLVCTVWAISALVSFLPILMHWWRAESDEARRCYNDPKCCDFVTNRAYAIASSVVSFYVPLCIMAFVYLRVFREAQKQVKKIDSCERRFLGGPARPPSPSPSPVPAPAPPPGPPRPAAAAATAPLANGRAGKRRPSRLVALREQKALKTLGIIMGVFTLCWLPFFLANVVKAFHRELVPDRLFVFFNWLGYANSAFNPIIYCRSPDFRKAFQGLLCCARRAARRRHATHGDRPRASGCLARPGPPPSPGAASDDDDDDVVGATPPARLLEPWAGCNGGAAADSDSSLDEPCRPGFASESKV

[5] = target: Gamma-aminobutyric acid receptor subunit alpha-1 (Rattus norvegicus, UniProt P62813); format: functional
Gamma-aminobutyric acid receptor subunit alpha-1, sequence (P62813 whole entry): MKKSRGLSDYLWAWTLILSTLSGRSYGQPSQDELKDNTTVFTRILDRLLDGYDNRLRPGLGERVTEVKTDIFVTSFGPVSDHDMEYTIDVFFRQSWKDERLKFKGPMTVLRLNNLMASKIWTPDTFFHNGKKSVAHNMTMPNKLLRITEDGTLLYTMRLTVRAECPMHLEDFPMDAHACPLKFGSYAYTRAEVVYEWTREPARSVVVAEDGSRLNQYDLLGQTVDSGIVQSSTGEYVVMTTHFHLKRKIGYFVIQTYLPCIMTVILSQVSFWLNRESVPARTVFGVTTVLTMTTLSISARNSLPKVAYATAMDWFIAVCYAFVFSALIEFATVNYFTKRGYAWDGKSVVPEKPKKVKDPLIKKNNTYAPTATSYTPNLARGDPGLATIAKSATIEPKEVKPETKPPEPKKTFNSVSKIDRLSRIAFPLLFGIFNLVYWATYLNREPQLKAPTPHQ

Vasopressin V1a receptor = Vasopressin V1a receptor (Homo sapiens, UniProt P37288)
Vasopressin V1a receptor, sequence (P37288 whole entry): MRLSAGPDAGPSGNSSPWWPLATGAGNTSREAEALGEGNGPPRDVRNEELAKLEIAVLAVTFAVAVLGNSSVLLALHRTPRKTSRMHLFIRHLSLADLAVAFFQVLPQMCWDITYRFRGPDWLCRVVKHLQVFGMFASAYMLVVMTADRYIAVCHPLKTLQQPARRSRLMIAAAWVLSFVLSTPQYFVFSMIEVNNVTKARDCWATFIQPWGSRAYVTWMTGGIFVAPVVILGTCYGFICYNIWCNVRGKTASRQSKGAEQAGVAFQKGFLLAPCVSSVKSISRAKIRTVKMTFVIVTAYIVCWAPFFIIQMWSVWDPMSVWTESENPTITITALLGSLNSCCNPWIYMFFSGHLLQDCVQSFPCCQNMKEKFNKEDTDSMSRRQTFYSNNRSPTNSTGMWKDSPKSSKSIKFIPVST

[6] = target: T4, Muscarinic acetylcholine receptor M1 (Homo sapiens, UniProt P11229); format: functional
T4 sequence (P11229 whole entry): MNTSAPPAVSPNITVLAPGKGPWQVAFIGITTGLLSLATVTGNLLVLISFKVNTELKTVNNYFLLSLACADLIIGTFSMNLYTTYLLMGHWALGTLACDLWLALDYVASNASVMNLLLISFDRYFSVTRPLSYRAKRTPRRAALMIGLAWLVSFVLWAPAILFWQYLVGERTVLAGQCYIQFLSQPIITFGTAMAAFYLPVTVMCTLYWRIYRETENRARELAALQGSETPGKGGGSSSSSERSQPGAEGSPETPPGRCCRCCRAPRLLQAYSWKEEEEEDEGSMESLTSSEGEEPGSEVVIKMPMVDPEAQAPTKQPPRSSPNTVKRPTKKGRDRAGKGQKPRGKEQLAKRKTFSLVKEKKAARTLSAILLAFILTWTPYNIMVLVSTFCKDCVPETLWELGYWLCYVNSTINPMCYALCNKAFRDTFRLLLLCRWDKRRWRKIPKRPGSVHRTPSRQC

Histamine H1 receptor = Histamine H1 receptor (Homo sapiens, UniProt P35367)
Histamine H1 receptor, sequence (P35367 whole entry): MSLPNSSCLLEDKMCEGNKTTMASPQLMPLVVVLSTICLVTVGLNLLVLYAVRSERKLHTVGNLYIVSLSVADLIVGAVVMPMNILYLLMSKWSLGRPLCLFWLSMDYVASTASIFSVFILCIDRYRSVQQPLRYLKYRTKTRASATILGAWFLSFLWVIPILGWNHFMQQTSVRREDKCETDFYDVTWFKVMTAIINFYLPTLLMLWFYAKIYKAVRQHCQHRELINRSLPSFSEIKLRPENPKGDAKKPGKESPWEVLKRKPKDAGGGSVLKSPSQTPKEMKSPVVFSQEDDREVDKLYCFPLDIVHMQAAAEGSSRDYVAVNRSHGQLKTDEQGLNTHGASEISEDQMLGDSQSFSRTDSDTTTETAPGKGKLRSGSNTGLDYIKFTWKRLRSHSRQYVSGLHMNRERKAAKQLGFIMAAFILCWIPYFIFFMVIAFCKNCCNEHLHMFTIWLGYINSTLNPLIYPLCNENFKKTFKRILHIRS

[7] = target: T5, Alpha-2B adrenergic receptor (Homo sapiens, UniProt P18089)
T5 sequence (P18089 whole entry): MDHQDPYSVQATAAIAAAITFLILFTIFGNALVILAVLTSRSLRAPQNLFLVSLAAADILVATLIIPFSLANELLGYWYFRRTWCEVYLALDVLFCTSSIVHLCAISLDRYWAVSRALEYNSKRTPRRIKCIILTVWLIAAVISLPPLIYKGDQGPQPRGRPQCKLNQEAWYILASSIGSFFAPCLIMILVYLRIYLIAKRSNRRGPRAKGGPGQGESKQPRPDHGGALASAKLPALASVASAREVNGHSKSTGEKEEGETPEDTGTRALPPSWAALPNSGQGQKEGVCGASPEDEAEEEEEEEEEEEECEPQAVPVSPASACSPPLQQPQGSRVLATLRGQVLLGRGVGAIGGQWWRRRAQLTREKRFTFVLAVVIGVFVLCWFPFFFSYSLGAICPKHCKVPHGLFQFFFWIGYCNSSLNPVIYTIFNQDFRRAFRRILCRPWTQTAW
Note: assay procedure not described here.

Row | SMILES | AC50 [1] [µM] | AC50 [2] [µM] | AC50 [3] [µM] | AC50 [4] [µM] | AC50 [5] [µM] | AC50 (Vasopressin V1a receptor) [µM] | AC50 [6] [µM] | AC50 (Histamine H1 receptor) [µM] | AC50 [7] [µM]
1 | CN1C(C(=O)Nc2ccccn2)=C(OC(=O)/C=C/c2ccccc2)c2ccccc2S1(=O)=O [PIROXICAM CINNAMATE] | > 300 |  |  |  |  |  |  |  | 
2 | N=C(N)NC(=O)c1nc(Cl)c(N)nc1N [AMILORIDE] | > 30 | > 30 | > 30 | > 30 | > 30 | > 30 |  |  | 
3 | Oc1cc(Cl)ccc1Oc1ccc(Cl)cc1Cl [TRICLOSAN] | > 30 | > 30 | > 30 | > 30 | > 30 | > 30 | > 30 | > 30 | > 30
4 | C[C@]12C=CC(=O)C=C1C(Cl)=C[C@@H]1[C@@H]2[C@@H](O)C[C@@]2(C)[C@H]1CC[C@]2(O)C(=O)CO [CLOPREDNOL] | > 30 | > 30 | > 30 | > 30 | > 30 | > 30 | > 30 | > 30 | > 30
5 | CN(C)[C@@H]1C(O)=C(C(=O)NCN2CCCC2)C(=O)[C@@]2(O)C(O)=C3C(=O)c4c(O)cccc4[C@@](C)(O)[C@H]3C[C@@H]12 [ROLITETRACYCLINE] | 0.653 | > 10 | > 30 | > 10 | > 10 | > 10 | > 10 | > 10 | > 10
6 | C[C@]12CCC(=O)C=C1C=C[C@@H]1[C@@H]2CC[C@@]2(C)[C@H]1CC[C@@]21CCC(=O)O1 [CANRENONE] | > 30 | > 30 | > 30 | > 30 | > 30 | > 30 | > 30 | > 30 | > 30
7 | CCn1c(=O)c2c(nc(/C=C/c3ccc(OC)c(OC)c3)n2C)n(CC)c1=O [ISTRADEFYLLINE] | > 30 |  |  |  |  |  | > 30 | > 30 | 
8 | CC(C)(Oc1ccc(Cl)cc1)C(=O)OCCOC(=O)c1cccnc1 [ETOFIBRATE] | > 30 | > 30 |  | > 30 | > 30 | > 30 | > 30 | > 30 | > 30
9 | Cc1cn(-c2cc(NC(=O)c3ccc(C)c(Nc4nccc(-c5cnccn5)n4)c3)cc(C(F)(F)F)c2)cn1 [RADOTINIB] | > 30 |  |  | > 30 |  |  | > 30 | > 30 | 
10 | COc1ccc(-c2cc(=S)ss2)cc1 [ANETHOLTRITHION] | > 30 | > 30 | > 30 | > 10 | > 30 | 8.7 | > 30 | > 30 | > 30

Reference: ChEMBL document CHEMBL5291721, “A preclinical secondary pharmacology resource illuminates target-adverse drug reaction associations of marketed drugs” (Nat Commun, 2023)
